Converted amounts (≈) assume the structure as drawn.
Columns and labels:
Format in all cases: functional
Haemophilus influenzae [1] = test: Antibacterial activity against genetically beta-lactamase-positive amoxicillin-clavulanate-resistant Haemophilus influenzae type b with an amino acid substitution in variable mutated locus Asn-526 or Arg-517 of ftsI gene assessed as susceptibility rate by broth microdilution method
Haemophilus influenzae [2] = test: Antibacterial activity against genetically […] but without an amino acid substitution in ftsI gene assessed as susceptibility rate by broth microdilution method
Haemophilus influenzae [3] = test: Antibacterial activity against genetically beta-lactamase-negative ampicillin-susceptible Haemophilus influenzae type b without amino acid substitutions in ftsI gene and bla gene assessed as susceptibility rate by broth microdilution method
Haemophilus influenzae [4] = test: Antibacterial activity against genetically […] but without an amino acid substitution in ftsI gene by broth microdilution method
Haemophilus influenzae [5] = test: Antibacterial activity against genetically […] but without an amino acid substitution in ftsI gene assessed as resistance rate by broth microdilution method
Haemophilus influenzae [6] = test: Antibacterial activity against beta-lactamase-negative ampicillin-resistant Haemophilus influenzae with mutation in AcrAB repressor gene […]
Haemophilus influenzae [7] = test: Antibacterial activity against genetically beta-lactamase-positive amoxicillin-clavulanate-resistant Haemophilus influenzae type b with an amino acid substitution in highly mutated locus Ser-385 of ftsI gene by broth microdilution method
Haemophilus influenzae [8] = test: Antibacterial activity against genetically beta-lactamase-negative ampicillin-resistant Haemophilus influenzae type b with an amino acid substitution in highly mutated locus Ser-385 of ftsI gene by broth microdilution method
Haemophilus influenzae [9] = test: Antibacterial activity against genetically beta-lactamase-negative ampicillin-resistant Haemophilus influenzae type b with an amino acid substitution in variable mutated locus Asn-526 or Arg-517 of ftsI gene by broth microdilution method
Haemophilus influenzae [10] = test: Antibacterial activity against genetically beta-lactamase-negative ampicillin-resistant Haemophilus influenzae type b with an amino acid substitution in highly mutated locus Ser-385 of ftsI gene assessed as susceptibility rate by broth microdilution method
Haemophilus influenzae [11] = test: Antibacterial activity against genetically beta-lactamase-negative ampicillin-susceptible Haemophilus influenzae type b without amino acid substitutions in ftsI gene and bla gene assessed as resistance rate by broth microdilution method
Haemophilus influenzae [12] = test: Antibacterial activity against genetically beta-lactamase-negative ampicillin-susceptible Haemophilus influenzae type b without amino acid substitutions in ftsI gene and bla gene by broth microdilution method
Haemophilus influenzae [13] = test: Antibacterial activity against genetically beta-lactamase-positive amoxicillin-clavulanate-resistant Haemophilus influenzae type b with an amino acid substitution in highly mutated locus Ser-385 of ftsI gene assessed as susceptibility rate by broth microdilution method
Haemophilus influenzae [14] = test: Antibacterial activity against genetically beta-lactamase-negative ampicillin-resistant Haemophilus influenzae type b with an amino acid substitution in variable mutated locus Asn-526 or Arg-517 of ftsI gene assessed as resistance rate by broth microdilution method
Haemophilus influenzae [15] = test: Antibacterial activity against genetically beta-lactamase-positive amoxicillin-clavulanate-resistant Haemophilus influenzae type b with an amino acid substitution in variable mutated locus Asn-526 or Arg-517 of ftsI gene assessed as resistance rate by broth microdilution method
Haemophilus influenzae [16] = test: Antibacterial activity against genetically beta-lactamase-negative ampicillin-resistant Haemophilus influenzae type b with an amino acid substitution in highly mutated locus Ser-385 of ftsI gene assessed as resistance rate by broth microdilution method
Haemophilus influenzae [17] = test: Antibacterial activity against beta-lactamase-negative ampicillin-resistant Haemophilus influenzae by Etest
Haemophilus influenzae [18] = test: Antibacterial activity against genetically beta-lactamase-positive amoxicillin-clavulanate-resistant Haemophilus influenzae type b with an amino acid substitution in variable mutated locus Asn-526 or Arg-517 of ftsI gene by broth microdilution method
Haemophilus influenzae [19] = test: Antibacterial activity against genetically beta-lactamase-positive amoxicillin-clavulanate-resistant Haemophilus influenzae type b with an amino acid substitution in highly mutated locus Ser-385 of ftsI gene assessed as resistance rate by broth microdilution method
Haemophilus influenzae [20] = test: Antibacterial activity against genetically beta-lactamase-negative ampicillin-resistant Haemophilus influenzae type b with an amino acid substitution in variable mutated locus Asn-526 or Arg-517 of ftsI gene assessed as susceptibility rate by broth microdilution method

SMILES	Activity (Haemophilus influenzae [3]) [%]	MIC50 (Haemophilus influenzae [8]) [µg/mL]	MIC90 (Haemophilus influenzae [8]) [µg/mL]	MIC50 (Haemophilus influenzae [9]) [µg/mL]	MIC90 (Haemophilus influenzae [9]) [µg/mL]	Activity (Haemophilus influenzae [10]) [%]	Activity (Haemophilus influenzae [11]) [%]	MIC50 (Haemophilus influenzae [12]) [µg/mL]	MIC90 (Haemophilus influenzae [12]) [µg/mL]	Activity (Haemophilus influenzae [14]) [%]	Activity (Haemophilus influenzae [16]) [%]	Activity (Haemophilus influenzae [20]) [%]	also measured
CC1(C)S[C@@H]2[C@H](NC(=O)[C@H](N)c3ccccc3)C(=O)N2[C@H]1C(=O)O [AMPICILLIN]	100	4 (≈ 11.4 µM)	16 (≈ 45.8 µM)	0.5 (≈ 1.43 µM)	2 (≈ 5.72 µM)	9.5	0	0.5 (≈ 1.43 µM)	0.5 (≈ 1.43 µM)	8.1	71.6	68.4	Activity (Haemophilus influenzae [1]): 0%; Activity (Haemophilus influenzae [2]): 0%; MIC50 (Haemophilus influenzae [4]): 64 µg/mL (≈ 183 µM); MIC90 (Haemophilus influenzae [4]): > 128 µg/mL; Activity (Haemophilus influenzae [5]): 100%; MIC (Haemophilus influenzae [6]): 8 µg/mL (≈ 22.9 µM); MIC50 (Haemophilus influenzae [7]): > 128 µg/mL; MIC90 (Haemophilus influenzae [7]): > 128 µg/mL; Activity (Haemophilus influenzae [13]): 0%; Activity (Haemophilus influenzae [15]): 100%; MIC (Haemophilus influenzae [17]): 256 µg/mL (≈ 733 µM); MIC50 (Haemophilus influenzae [18]): 128 µg/mL; MIC90 (Haemophilus influenzae [18]): 128 µg/mL; Activity (Haemophilus influenzae [19]): 100%
CC[C@H]1OC(=O)[C@H](C)[C@@H](O[C@H]2C[C@@](C)(OC)[C@@H](O)[C@H](C)O2)[C@H](C)[C@@H](O[C@@H]2O[C@H](C)C[C@H](N(C)C)[C@H]2O)[C@](C)(O)C[C@@H](C)CN(C)[C@H](C)[C@@H](O)[C@]1(C)O [AZITHROMYCIN]	98.8	2 (≈ 2.67 µM)	4 (≈ 5.34 µM)	2 (≈ 2.67 µM)	4 (≈ 5.34 µM)	97.3	1.2	2 (≈ 2.67 µM)	4 (≈ 5.34 µM)	4.1	2.7	95.9	–
CO/N=C(\C(=O)N[C@@H]1C(=O)N2C(C(=O)OCOC(=O)C(C)(C)C)=C(/C=C\c3scnc3C)CS[C@H]12)c1csc(N)n1 [CEFDITOREN PIVOXIL]	–	0.25 (≈ 0.403 µM)	0.5 (≈ 0.805 µM)	≤ 0.06	0.12 (≈ 0.193 µM)	–	–	≤ 0.06	≤ 0.06	–	–	–	–
COCC1=C(C(=O)O)N2C(=O)[C@@H](NC(=O)/C(=N\OC)c3csc(N)n3)[C@H]2SC1 [CEFPODOXIME]	100	8 (≈ 18.7 µM)	16 (≈ 37.4 µM)	0.25 (≈ 0.585 µM)	2 (≈ 4.68 µM)	9.1	0	0.12 (≈ 0.281 µM)	0.12 (≈ 0.281 µM)	9.2	91.9	90.8	–
CO/N=C(\C(=O)N[C@@H]1C(=O)N2C(C(=O)O)=C(COC(N)=O)CS[C@H]12)c1ccco1 [CEFUROXIME]	97.7	64 (≈ 151 µM)	128 (≈ 302 µM)	2 (≈ 4.71 µM)	16 (≈ 37.7 µM)	1.4	1.2	1 (≈ 2.36 µM)	2 (≈ 4.71 µM)	21.4	94.6	66.3	–
CC[C@H]1OC(=O)[C@H](C)[C@@H](O[C@H]2C[C@@](C)(OC)[C@@H](O)[C@H](C)O2)[C@H](C)[C@@H](O[C@@H]2O[C@H](C)C[C@H](N(C)C)[C@H]2O)[C@](C)(OC)C[C@@H](C)C(=O)[C@H](C)[C@@H](O)[C@]1(C)O [CLARITHROMYCIN]	79.3	8 (≈ 10.7 µM)	16 (≈ 21.4 µM)	8 (≈ 10.7 µM)	16 (≈ 21.4 µM)	60.8	3.5	8 (≈ 10.7 µM)	16 (≈ 21.4 µM)	2	0	75.5	–
C[C@H]1COc2c(N3CCN(C)CC3)c(F)cc3c(=O)c(C(=O)O)cn1c23.C[C@H]1COc2c(N3CCN(C)CC3)c(F)cc3c(=O)c(C(=O)O)cn1c23.O [LEVOFLOXACIN]	100	≤ 0.06	≤ 0.06	≤ 0.06	≤ 0.06	100	0	≤ 0.06	≤ 0.06	0	0	100	–
C[C@@H](O)[C@H]1C(=O)N2C(C(=O)O)=C(S[C@@H]3CN[C@H](C(=O)N(C)C)C3)[C@H](C)[C@H]12 [MEROPENEM]	100	0.25 (≈ 0.652 µM)	0.5 (≈ 1.3 µM)	0.12 (≈ 0.313 µM)	0.25 (≈ 0.652 µM)	90.5	0	≤ 0.06	≤ 0.06	0	9.5	100	–
CC[C@H]1OC(=O)[C@H](C)C(=O)[C@H](C)[C@@H](O[C@@H]2O[C@H](C)C[C@H](N(C)C)[C@H]2O)[C@](C)(OC)C[C@@H](C)C(=O)[C@H](C)[C@H]2N(CCCCn3cnc(-c4cccnc4)c3)C(=O)O[C@]12C [TELITHROMYCIN]	97.7	2 (≈ 2.46 µM)	4 (≈ 4.93 µM)	2 (≈ 2.46 µM)	4 (≈ 4.93 µM)	87.8	0	2 (≈ 2.46 µM)	4 (≈ 4.93 µM)	0	0	93.9	–
